Measurements published in ChEMBL document CHEMBL4177611, “Discovery of aminocyclohexene analogues as selective and orally bioavailable hNav1.7 inhibitors for analgesia” (Bioorg Med Chem Lett, 2017).

Tests used:
[1] = molecular target: Sodium channel protein type 5 subunit alpha (Homo sapiens, UniProt Q14524); experiment: Inhibition of human Nav1.5 expressed in HEK293 cells at -120 mV holding potential incubated over 5 mins measured at 15 secs interval by Qpatch clamp assay; format: cell-based
[2] = Metabolic stability in dog liver microsomes assessed as parent compound remaining at 10 uM measured up to 60 mins in presence of NADPH by LC-MS analysis; format: ADME, Canis lupus familiaris, microsome; conditions: read-out: Stability
[3] = AUC in Sprague-Dawley rat at 10 mg/kg administered as single dose via oral gavage by LC-MS/MS analysis; format: ADME, organism-based; conditions: in vivo
physchem [4] = conditions: buffer, pH 7.4
[5] = Plasma concentration in Sprague-Dawley rat spinal nerve ligation model at 30 mg/kg administered as single dose via oral gavage measured after 4 hrs by LC-MS/MS analysis; format: ADME, organism-based
[6] = Unbound plasma concentration in Sprague-Dawley rat spinal nerve ligation model at 30 mg/kg administered as single dose via oral gavage measured after 2 hrs by LC-MS/MS analysis; format: ADME, organism-based; conditions: in vivo
[7] = Plasma concentration in Sprague-Dawley rat spinal nerve ligation model at 30 mg/kg administered as single dose via oral gavage measured after 1 hr by LC-MS/MS analysis; format: ADME, organism-based
Cytochrome P450 3A4 = Cytochrome P450 3A4 (Homo sapiens, UniProt P08684)
[8] = Initial plasma concentration in Sprague-Dawley rat at 3 mg/kg administered as single iv bolus by LC-MS/MS analysis; format: ADME, organism-based
[9] = Plasma concentration in Sprague-Dawley rat spinal nerve ligation model at 100 mg/kg administered as single dose via oral gavage measured after 2 hrs by LC-MS/MS analysis; format: ADME, organism-based
[10] = Unbound plasma concentration in Sprague-Dawley rat spinal nerve ligation model at 100 mg/kg administered as single dose via oral gavage measured after 4 hrs by LC-MS/MS analysis; format: ADME, organism-based; conditions: in vivo
[11] = Unbound plasma concentration in Sprague-Dawley rat spinal nerve ligation model at 30 mg/kg administered as single dose via oral gavage measured after 1 hr by LC-MS/MS analysis; format: ADME, organism-based; conditions: in vivo
Cytochrome P450 2D6 = Cytochrome P450 2D6 (Homo sapiens, UniProt P10635)
[12] = Fraction unbound in human plasma at 2 uM after 4 hrs by LC-MS/MS analysis; format: ADME, cell-free
[13] = molecular target: Sodium channel protein type 9 subunit alpha (Homo sapiens, UniProt Q15858); experiment: Inhibition of human Nav1.7 expressed in CHO-K1 cells at -120 mV holding potential incubated over 5 mins measured at 15 secs interval by Qpatch clamp assay; format: cell-based
Cytochrome P450 2C19 = Cytochrome P450 2C19 (Homo sapiens, UniProt P33261)
[14] = Plasma concentration in Sprague-Dawley rat spinal nerve ligation model at 30 mg/kg administered as single dose via oral gavage measured after 2 hrs by LC-MS/MS analysis; format: ADME, organism-based
Rattus norvegicus = experiment: Unbound AUC (0 to last) in Sprague-Dawley rat at 10 mg/kg administered as single dose via oral gavage by LC-MS/MS analysis; format: ADME, organism-based; conditions: in vivo
[15] = Oral bioavailability in Sprague-Dawley rat at 10 mg/kg administered as single dose via gavage by LC-MS/MS analysis; format: ADME, organism-based; conditions: in vivo
[16] = AUC (0 to last) in Sprague-Dawley rat at 10 mg/kg administered as single dose via oral gavage by LC-MS/MS analysis; format: ADME, organism-based; parameters: dose 10 mg/kg, route oral, time 0 - last; conditions: in vivo
[17] = molecular target: Voltage-gated inwardly rectifying potassium channel KCNH2 (Homo sapiens, UniProt Q12809)
[18] = Metabolic stability in rat liver microsomes assessed as parent compound remaining at 10 uM measured up to 60 mins in presence of NADPH by LC-MS analysis; format: ADME, microsome; conditions: read-out: Stability
[19] = Unbound plasma concentration in Sprague-Dawley rat spinal nerve ligation model at 30 mg/kg administered as single dose via oral gavage measured after 4 hrs by LC-MS/MS analysis; format: ADME, organism-based; conditions: in vivo
[20] = Half life in Sprague-Dawley rat at 3 mg/kg administered as single iv bolus by LC-MS/MS analysis; format: ADME, organism-based; conditions: in vivo
[21] = Drug metabolism in po dosed rat plasma assessed as deethylation by measuring 4-(((1R,6R)-6-amino-2-(4-fluorophenyl)cyclohex-2-enyl)methoxy)-5-chloro-2-fluoro-N-(thiazol-4-yl)benzenesulfonamide metabolite formation; format: ADME, organism-based; conditions: in vivo
[22] = Metabolic stability in human liver microsomes assessed as parent compound remaining at 10 uM measured up to 60 mins in presence of NADPH by LC-MS analysis; format: ADME, microsome; conditions: read-out: Stability
[23] = molecular target: Sodium channel protein type 4 subunit alpha (Homo sapiens, UniProt P35499); format: ADME
Cytochrome P450 2C9 = Cytochrome P450 2C9 (Homo sapiens, UniProt P11712)
[24] = Tmax in Sprague-Dawley rat at 10 mg/kg administered as single dose via oral gavage by LC-MS/MS analysis; format: ADME, organism-based; conditions: in vivo
[25] = Dissociation constant, pKa of the compound; format: physicochemical
[26] = Clearance in Sprague-Dawley rat at 3 mg/kg administered as single iv bolus by LC-MS/MS analysis; format: ADME, organism-based; conditions: in vivo
[27] = Drug metabolism in human liver microsomes assessed as oxygenation by measuring M3 metabolite formation at 10 uM measured up to 60 mins in presence of NADPH by LC-MS analysis relative to total metabolite peak area; format: ADME, microsome; conditions: 1 h
[28] = Volume of distribution at steady state in Sprague-Dawley rat at 3 mg/kg administered as single iv bolus by LC-MS/MS analysis; format: ADME, organism-based; conditions: in vivo, read-out: Vdss
[29] = Fraction unbound in rat plasma at 2 uM after 4 hrs by LC-MS/MS analysis; format: ADME, cell-free
[30] = Cmax in Sprague-Dawley rat at 10 mg/kg administered as single dose via oral gavage by LC-MS/MS analysis; format: ADME, organism-based; parameters: dose 10 mg/kg, route oral; conditions: in vivo
[31] = Intrinsic clearance in human liver microsomes at 1 uM after 60 mins in presence of NADPH by LC-MS/MS analysis; format: ADME, microsome; conditions: read-out: CLH
[32] = Plasma concentration in Sprague-Dawley rat spinal nerve ligation model at 100 mg/kg administered as single dose via oral gavage measured after 4 hrs by LC-MS/MS analysis; format: ADME, organism-based
physchem [33] = conditions: buffer, pH 7.4; remark: listed apart in the source
[34] = Clearance in Sprague-Dawley rat administered as single iv bolus by LC-MS/MS analysis; format: ADME, organism-based; conditions: in vivo
[35] = Intrinsic clearance in rat liver microsomes at 1 uM after 60 mins in presence of NADPH by LC-MS/MS analysis; format: ADME, microsome; conditions: read-out: CLH
[36] = Drug uptake in Sprague-Dawley rat dorsal root ganglion at 100 mg/kg, ig measured after 1.5 hrs by LC-MS/MS analysis; format: ADME, organism-based; conditions: in vivo, po
[37] = AUC (0 to last) in Sprague-Dawley rat at 3 mg/kg administered as single iv bolus by LC-MS/MS analysis; format: ADME, organism-based; parameters: dose 3 mg/kg, route intravenous, time 0 - last; conditions: in vivo

Sequence of Voltage-gated inwardly rectifying potassium channel KCNH2 (Q12809 whole entry): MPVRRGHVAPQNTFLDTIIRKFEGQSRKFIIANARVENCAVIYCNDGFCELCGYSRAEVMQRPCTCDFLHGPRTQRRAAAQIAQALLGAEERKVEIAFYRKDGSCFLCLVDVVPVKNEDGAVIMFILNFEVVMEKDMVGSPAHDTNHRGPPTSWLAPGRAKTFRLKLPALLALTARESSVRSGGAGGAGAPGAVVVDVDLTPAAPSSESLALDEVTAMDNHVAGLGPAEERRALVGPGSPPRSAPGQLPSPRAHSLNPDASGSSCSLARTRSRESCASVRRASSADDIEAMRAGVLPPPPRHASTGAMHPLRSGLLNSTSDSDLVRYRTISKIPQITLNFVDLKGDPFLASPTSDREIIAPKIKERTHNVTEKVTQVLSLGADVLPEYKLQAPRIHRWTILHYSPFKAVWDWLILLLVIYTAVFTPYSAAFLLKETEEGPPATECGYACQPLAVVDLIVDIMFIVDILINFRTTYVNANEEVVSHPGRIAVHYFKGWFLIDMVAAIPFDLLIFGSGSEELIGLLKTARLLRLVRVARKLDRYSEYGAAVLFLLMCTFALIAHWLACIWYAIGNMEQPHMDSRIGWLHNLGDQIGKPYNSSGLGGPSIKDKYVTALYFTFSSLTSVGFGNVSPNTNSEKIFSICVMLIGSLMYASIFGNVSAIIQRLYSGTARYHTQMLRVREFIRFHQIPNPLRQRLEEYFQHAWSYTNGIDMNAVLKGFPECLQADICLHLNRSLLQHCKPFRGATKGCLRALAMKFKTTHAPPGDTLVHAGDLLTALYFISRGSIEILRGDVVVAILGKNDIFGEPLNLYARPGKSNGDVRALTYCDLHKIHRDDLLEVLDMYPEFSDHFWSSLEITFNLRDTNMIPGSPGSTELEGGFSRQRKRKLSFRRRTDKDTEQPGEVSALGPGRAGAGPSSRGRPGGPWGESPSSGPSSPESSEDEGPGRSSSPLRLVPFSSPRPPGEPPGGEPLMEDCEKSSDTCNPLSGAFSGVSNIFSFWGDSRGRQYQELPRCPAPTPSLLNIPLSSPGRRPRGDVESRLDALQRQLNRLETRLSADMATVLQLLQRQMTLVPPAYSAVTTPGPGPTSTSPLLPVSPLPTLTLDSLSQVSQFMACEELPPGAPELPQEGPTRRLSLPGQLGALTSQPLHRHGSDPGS
Sequence of Cytochrome P450 2D6 (P10635 whole entry): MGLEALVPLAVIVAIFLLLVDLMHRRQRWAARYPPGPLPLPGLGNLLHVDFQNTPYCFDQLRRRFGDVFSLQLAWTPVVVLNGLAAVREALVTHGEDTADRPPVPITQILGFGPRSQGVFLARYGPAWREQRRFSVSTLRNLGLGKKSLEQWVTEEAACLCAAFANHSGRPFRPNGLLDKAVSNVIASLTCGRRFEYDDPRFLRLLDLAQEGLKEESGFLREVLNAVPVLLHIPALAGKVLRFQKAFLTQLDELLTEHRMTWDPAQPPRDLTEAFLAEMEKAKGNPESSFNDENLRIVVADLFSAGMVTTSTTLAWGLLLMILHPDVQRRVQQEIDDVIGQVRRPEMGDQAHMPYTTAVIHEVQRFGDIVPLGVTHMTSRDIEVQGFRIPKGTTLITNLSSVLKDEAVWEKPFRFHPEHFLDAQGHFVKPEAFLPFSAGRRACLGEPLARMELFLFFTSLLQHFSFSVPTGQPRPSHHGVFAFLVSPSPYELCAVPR
Sequence of Cytochrome P450 2C19 (P33261 whole entry): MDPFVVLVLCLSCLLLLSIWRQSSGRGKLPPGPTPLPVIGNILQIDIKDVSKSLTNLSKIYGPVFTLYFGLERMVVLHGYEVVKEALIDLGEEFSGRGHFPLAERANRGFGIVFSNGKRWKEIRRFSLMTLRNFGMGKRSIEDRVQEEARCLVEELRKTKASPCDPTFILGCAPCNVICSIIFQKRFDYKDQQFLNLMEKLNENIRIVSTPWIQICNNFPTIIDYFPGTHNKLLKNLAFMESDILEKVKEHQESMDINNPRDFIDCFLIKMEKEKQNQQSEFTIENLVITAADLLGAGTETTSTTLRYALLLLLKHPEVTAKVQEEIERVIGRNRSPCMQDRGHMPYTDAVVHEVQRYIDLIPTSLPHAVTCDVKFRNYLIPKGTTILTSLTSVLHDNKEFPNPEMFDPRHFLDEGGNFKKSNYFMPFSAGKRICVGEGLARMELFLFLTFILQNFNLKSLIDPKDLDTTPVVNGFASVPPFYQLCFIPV
Sequence of Cytochrome P450 2C9 (P11712 whole entry): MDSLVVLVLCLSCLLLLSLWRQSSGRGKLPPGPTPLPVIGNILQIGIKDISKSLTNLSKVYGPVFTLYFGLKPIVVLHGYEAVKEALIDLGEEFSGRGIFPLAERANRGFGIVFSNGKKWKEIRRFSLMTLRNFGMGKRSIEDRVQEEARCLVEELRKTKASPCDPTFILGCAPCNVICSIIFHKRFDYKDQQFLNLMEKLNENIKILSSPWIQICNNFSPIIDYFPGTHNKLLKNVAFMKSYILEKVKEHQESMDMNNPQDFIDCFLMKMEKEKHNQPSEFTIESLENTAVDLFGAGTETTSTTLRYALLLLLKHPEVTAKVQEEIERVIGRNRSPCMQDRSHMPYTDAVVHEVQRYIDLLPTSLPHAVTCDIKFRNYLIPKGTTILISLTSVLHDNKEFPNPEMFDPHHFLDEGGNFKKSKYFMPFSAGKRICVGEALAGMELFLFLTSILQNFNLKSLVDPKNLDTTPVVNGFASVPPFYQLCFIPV
Sequence of Cytochrome P450 3A4 (P08684 whole entry): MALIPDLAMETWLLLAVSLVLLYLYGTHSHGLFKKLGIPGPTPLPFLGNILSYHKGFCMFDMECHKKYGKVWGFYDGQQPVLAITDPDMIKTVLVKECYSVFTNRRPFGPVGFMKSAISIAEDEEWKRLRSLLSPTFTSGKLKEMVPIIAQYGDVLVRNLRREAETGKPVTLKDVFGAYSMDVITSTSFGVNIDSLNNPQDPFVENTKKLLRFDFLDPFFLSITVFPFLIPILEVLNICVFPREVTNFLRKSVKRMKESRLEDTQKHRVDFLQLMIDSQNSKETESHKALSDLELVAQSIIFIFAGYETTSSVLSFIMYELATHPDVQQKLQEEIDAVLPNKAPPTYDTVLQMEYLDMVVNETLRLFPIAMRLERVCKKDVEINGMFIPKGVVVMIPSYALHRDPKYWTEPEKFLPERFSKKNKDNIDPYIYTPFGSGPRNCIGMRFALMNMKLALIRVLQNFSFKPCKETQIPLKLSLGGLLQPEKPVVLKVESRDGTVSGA
Sequence of Sodium channel protein type 4 subunit alpha (P35499 whole entry): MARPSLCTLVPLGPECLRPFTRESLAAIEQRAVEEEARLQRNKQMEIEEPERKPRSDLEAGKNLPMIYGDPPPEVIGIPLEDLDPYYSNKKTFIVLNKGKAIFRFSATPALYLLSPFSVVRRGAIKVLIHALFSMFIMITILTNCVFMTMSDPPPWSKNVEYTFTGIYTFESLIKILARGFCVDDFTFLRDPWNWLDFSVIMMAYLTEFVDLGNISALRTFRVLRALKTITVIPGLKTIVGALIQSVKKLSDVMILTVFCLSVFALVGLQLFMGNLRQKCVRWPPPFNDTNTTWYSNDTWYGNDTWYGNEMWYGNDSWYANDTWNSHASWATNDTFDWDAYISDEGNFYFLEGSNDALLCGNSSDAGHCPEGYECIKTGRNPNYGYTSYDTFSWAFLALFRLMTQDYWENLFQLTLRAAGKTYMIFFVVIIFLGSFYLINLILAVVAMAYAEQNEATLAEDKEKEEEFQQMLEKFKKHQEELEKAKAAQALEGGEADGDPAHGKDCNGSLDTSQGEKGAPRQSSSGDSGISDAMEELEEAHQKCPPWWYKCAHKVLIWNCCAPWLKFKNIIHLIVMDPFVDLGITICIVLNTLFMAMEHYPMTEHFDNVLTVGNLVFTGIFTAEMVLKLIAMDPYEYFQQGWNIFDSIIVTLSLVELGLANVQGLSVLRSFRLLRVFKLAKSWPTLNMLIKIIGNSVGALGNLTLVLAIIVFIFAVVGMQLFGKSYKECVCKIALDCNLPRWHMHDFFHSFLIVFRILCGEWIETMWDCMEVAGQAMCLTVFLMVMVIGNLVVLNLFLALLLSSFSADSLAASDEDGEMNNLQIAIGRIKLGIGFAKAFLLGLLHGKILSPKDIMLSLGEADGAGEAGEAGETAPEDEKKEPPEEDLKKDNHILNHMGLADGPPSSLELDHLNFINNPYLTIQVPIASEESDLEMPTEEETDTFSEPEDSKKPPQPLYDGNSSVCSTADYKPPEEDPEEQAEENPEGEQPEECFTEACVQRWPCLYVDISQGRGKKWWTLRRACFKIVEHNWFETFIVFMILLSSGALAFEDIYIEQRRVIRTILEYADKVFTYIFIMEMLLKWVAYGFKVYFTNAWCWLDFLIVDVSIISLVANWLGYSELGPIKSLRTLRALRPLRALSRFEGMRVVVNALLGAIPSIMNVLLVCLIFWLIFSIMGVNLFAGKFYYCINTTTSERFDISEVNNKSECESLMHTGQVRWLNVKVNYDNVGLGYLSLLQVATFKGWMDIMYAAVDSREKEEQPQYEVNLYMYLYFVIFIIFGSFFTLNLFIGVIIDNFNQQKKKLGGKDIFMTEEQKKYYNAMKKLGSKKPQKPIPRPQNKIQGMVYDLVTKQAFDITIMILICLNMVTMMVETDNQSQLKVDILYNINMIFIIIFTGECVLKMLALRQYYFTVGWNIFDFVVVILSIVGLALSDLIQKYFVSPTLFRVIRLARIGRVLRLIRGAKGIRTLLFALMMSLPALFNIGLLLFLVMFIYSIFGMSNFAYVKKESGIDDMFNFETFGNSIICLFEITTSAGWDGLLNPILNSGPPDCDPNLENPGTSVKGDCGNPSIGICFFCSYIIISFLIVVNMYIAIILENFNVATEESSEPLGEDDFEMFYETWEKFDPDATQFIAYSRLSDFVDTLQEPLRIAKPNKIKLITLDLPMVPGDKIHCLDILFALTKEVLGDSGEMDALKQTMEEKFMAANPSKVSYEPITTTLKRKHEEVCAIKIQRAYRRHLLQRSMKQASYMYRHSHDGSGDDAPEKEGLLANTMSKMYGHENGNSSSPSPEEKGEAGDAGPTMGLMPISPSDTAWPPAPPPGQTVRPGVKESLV

remaining at 1 h, 10 µM [2]: 81.2%
AUC [3]: 3.04 µM·h
logD (physchem [4]): 1.79
concentration at 4 h [5]: 1530 nM
Cp(f) [6]: 75 nM
concentration at 1 h [7]: 2010 nM
IC50 (Cytochrome P450 3A4): 43.4 µM
C0 [8]: 1910 nM
concentration at 2 h [9]: 7.5 µM
Cp(f) [10]: 163 nM
Cp(f) [11]: 70 nM
IC50 (Cytochrome P450 2D6): 22 µM
fraction unbound at 4 h, 2 µM [12]: 0.015
IC50 [13]: 34 nM
IC50 (Cytochrome P450 2C19): > 50 µM
concentration at 2 h [14]: 2160 nM
fAUClast (Rattus norvegicus): 106 nM·h
bioavailability [15]: 37%
AUC(0-t) [16]: 3.04 µM·h
remaining at 1 h, 10 µM [18]: 49.7%
Cp(f) [19]: 54 nM
half-life [20]: 93.6 min
Drug metabolism [21]: Metabolite_Detected
remaining at 1 h, 10 µM [22]: 37.6%
IC50 [23]: 25.2 µM
IC50 (Cytochrome P450 2C9): 5.7 µM
Tmax [24]: 1.67 h
pKa [25]: 6.34 to 9.35
clearance [26]: 37 mL/min/kg
Drug metabolism [27]: Metabolite_Detected
Vd [28]: 4.63 L/kg
fraction unbound at 4 h, 2 µM [29]: 0.035
Cmax [30]: 620 nM
CLint scaled at 1 µM [31]: 66.9 mL/min/kg
concentration at 4 h [32]: 4.64 µM
solubility thermodynamic (physchem [33]): 26.5 µM
clearance [34]: 37 mL/min/kg
CLint scaled at 1 µM [35]: 137 mL/min/kg
Drug uptake [36]: 2.6 µM/g
AUC(0-t) [37]: 2.44 µM·h
Compound: CCN[C@@H]1CCC=C(c2ccc(F)cc2)[C@H]1COc1cc(F)c(S(=O)(=O)Nc2cscn2)cc1Cl.Cl
IC50 [1]: > 10 µM
IC50 [17]: 4.4 µM
